Measurements taken from patent US20220257552A1, “METHODS OF PRESCREENING AND TREATING BREAST CANCERS WITH SELECTIVE ANDROGEN RECEPTOR MODULATORS” (priority 2021, published 2022).
Where “and” joins values, the source holds several entries; their conditions need not be identical. Equal values may be shown once.

What was measured:
[1] = tested on: ER-positive metastatic breast cancer; assay: Phase 2 trial G200801, 9 mg daily, ER-positive metastatic breast cancer; type: in vivo, human
Excerpt: The goal of this study was to determine the importance of the AR status as a therapeutic target in women with ER-positive metastatic breast cancer (MBC) that had previously responded to hormone therapy. The treatment was continued until disease progression (PD).
CBR will be correlated with AR status of metastatic tumor biopsy.
Female subjects with ER-positive metastatic breast cancer who have previously been treated with up to 3 prior hormonal therapies for the treatment of breast cancer. Subjects must have been treated with and responded to previous adjuvant therapy for ≥3 years or hormonal therapy for metastatic disease for ≥6 months prior to progression. Details of subject selection criteria are presented below:
The primary efficacy analysis was the clinical benefit in subjects with AR-positive breast cancer at 6 months as measured by a modified Response Evaluation Criteria in Solid Tumors (RECIST 1.1) classification. Key secondary endpoints of clinical benefit in all subjects and AR-negative subjects, as well as objective response rate, progression free survival, time to progression, duration of response, incidence of SREs, and time to first SRE in subsets based on AR status (i.e., all subjects, AR-positive subjects, and AR-negative subjects) was also assessed. Effects on CA 27-29, PSA, bone turnover markers, QOL, and libido were assessed as tertiary endpoints.
Clinical benefit in a subject is defined as a complete response [CR], a partial response [PR] or stable disease [SD] as measured by modified RECIST 1.1, which is described in detail below. (Eisenhauer E A et al. New response evaluation criteria in solid tumors: revised RECIST guideline (version 1.1). European Journal of Cancer 45:228-247, 2009).
For subjects with non-measurable (non-target) disease only at baseline, SD was defined as those with non-CR/non-PD combined response. The primary endpoint of the study was to assess the proportion of subjects with clinical benefit (PCB) at 6 months (CR+PR+SD) in subjects with AR-positive breast cancer.

[2] = tested on: MCF-7-GFP cells; type: cell-based, human
Excerpt: Tumor microenvironment contains tumor epithelial cells, stromal cells, cancer-associated fibroblasts (CAFs), and endothelial cells. The collective function of these cells promotes the aggressive growth of tumors due to secretion of paracrine factors. The CAFs are important for the sustained growth of cancers, and they differ from normal fibroblasts in their capacity to secrete factors that promote proliferation of cancer cells. […] Medium was collected over a period of 10 days and pooled. CAFs were stained with SRB to evaluate the effect of AR ligands on proliferation.
Conditioned medium was replaced on days 4 and 7 and the cells were stained with SRB to measure viability.

[3] = tested on: HCI-13 PDX; assay: HCI-13 (HCI-013) patient-derived xenograft in NSG mice; type: in vivo; conditions: 10 mpk p.o.
Protocol: HCI-013 tumor pieces (1 mm^3) were implanted surgically (one per mouse) under the skin on the flanks of NSG mice. Tumors were allowed to grow and reach approximately 100 mm^3 volume (1*W*W*0.526). […] Tumor volume was measured weekly and represented as % change in tumor volume. Mice were sacrificed, tumors weighed, and stored for further analysis.
All animal protocols were approved by The University of Tennessee Health Science Center (UTHSC) Institutional Animal Care and Use Research Committee. Xenograft experiments were performed as previously published (Narayanan et al. (2014) PLoS One 9, e103202). Briefly, 3 million MCF-7 cells were suspended in 0.05 ml MEM+10% FBS and 0.05 ml Matrigel/nude mouse and were injected subcutaneously. Once the tumor size reached 100-200 mm^3, the animals were randomized and treated orally with the indicated drugs formulated in DMSO:PEG-300 (15:85). HCI-7, HCI-9, and HCI-13 PDXs were gifts kindly donated by Dr. Alana Welm (Huntsman Cancer Institute, Salt Lake City, Utah). HCI PDX tumor fragments (1 mm^3) were surgically implanted under the mammary fat pad in female NOD SCID Gamma (NSG) mice. Tumor volume was measured twice weekly for MCF-7 xenograft and once or twice weekly for HCI PDXs. At the end of the study, animals were sacrificed and tumors were excised, weighed, and stored for various analyses.

C[C@](O)(COc1ccc(C#N)cc1)C(=O)Nc1ccc(C#N)c(C(F)(F)F)c1 [Formula IX, (S)—N-(4-Cyano-3-(trifluoromethyl)phenyl)-3-(4-cyanophenoxy)-2-hydroxy-2-methylpropanamide]
AR-positive patients with clinical benefit at 6 months (primary endpoint) ([1]; 9 mg daily): 6/17 | CR or PR ([1]; 9 mg daily): no CR or PR has been observed | median duration of SD as best response ([1]; 9 mg daily): 212 days | patients with PSA increase ([1]; 9 mg daily): 20 of the 22 | tolerability ([1]; 9 mg daily): well-tolerated | subjects with clinical benefit (SD) at 6 months ([1]; 9 mg once daily, all subjects): Seven out of twenty-two | tolerability ([1]; 9 mg, no virilization, hematocrit increase or liver toxicity): well tolerated | A-fib ([1]; AE count, 9 mg daily): 1 | anxiety/emotional changes ([1]; AE count, 9 mg daily): 5 | arthralgia ([1]; AE count, 9 mg daily): 6 | bloating ([1]; AE count, 9 mg daily): 2 | bruising ([1]; AE count, 9 mg daily): 1 | cellulitis ([1]; AE count, 9 mg daily): 1 | chills ([1]; AE count, 9 mg daily): 1 | constipation ([1]; AE count, 9 mg daily): 2 | cough ([1]; AE count, 9 mg daily): 1 | dehydration ([1]; AE count, 9 mg daily): 1 | diarrhea ([1]; AE count, 9 mg daily): 3 | dizziness ([1]; AE count, 9 mg daily): 2 | dysgeusia ([1]; AE count, 9 mg daily): 1 | dyspepsia ([1]; AE count, 9 mg daily): 1 | dyspnea ([1]; AE count, 9 mg daily): 3 | edema ([1]; AE count, 9 mg daily): 2 | fatigue ([1]; AE count, 9 mg daily): 14 | fever ([1]; AE count, 9 mg daily): 1 | flatulence ([1]; AE count, 9 mg daily): 1 | glaucoma ([1]; AE count, 9 mg daily): 1 | headache ([1]; AE count, 9 mg daily): 4 | hot flash night sweats ([1]; AE count, 9 mg daily): 7 | hypertension ([1]; AE count, 9 mg daily): 2 | infection ([1]; AE count, 9 mg daily): 1 | insomnia ([1]; AE count, 9 mg daily): 2 | myalgia ([1]; AE count, 9 mg daily): 5 | nail discoloration ([1]; AE count, 9 mg daily): 1 | nausea ([1]; AE count, 9 mg daily): 11 | pain ([1]; AE count, 9 mg daily): 22 | paresthesia ([1]; AE count, 9 mg daily): 1 | pleural effusion ([1]; AE count, 9 mg daily): 1 | polyuria ([1]; AE count, 9 mg daily): 1 | post menopausal bleeding ([1]; AE count, 9 mg daily): 3 | stiffness ([1]; AE count, 9 mg daily): 1 | tendonitis ([1]; AE count, 9 mg daily): 1 | vision changes ([1]; AE count, 9 mg daily): 3 | vomiting ([1]; AE count, 9 mg daily): 2 | weight gain ([1]; AE count, 9 mg daily): 2 | weight loss ([1]; AE count, 9 mg daily): 2 | subjects with CB as best response ([1]; all subjects (9/22)): 41% | Current Disposition ([1]; individual patients): D/C (2×) and Deceased (4×) | Days on Study ([1]; individual patients): 255 Days and 105 Days and 7 Days and 18 Days and 158 Days and 308 Days and 52 Days and 63 Days and 230 Days and 84 Days (3×) and 252 Days and 28 Days and 239 Days and 86 Days and 202 Days and 190 Days and 99 Days and 137 Days and 100 Days and 91 Days | Day 84 RECIST ([1]; individual patients, 9 mg daily): D/C SAE and PD SAE and D/C | tumor regression ([1]; one subject with SD): 27% | proliferation of breast cancer CAFs [2]: neither AR agonist, DHT and Formula IX, nor AR antagonist enzalutamide, affected the proliferation | proliferation of MCF-7-GFP cells fed conditioned medium from treated CAFs ([2]; 10 days): inhibited the proliferation | tumor weight at sacrifice [3]: almost complete inhibition of tumor
